# Reference: ChEMBL document CHEMBL3046474, “Development of robust QSAR model using rapid overlay of crystal structures (ROCS) based alignment: a test case of Tubulin inhibitors” (Med Chem Res, 2013)
# Biological target: Tubulin
# Experiment: Inhibition of tubulin polymerization in Homo sapiens (human) solid tumor cells
row,SMILES,pIC50
1,COc1ccc(/C=C\c2cc(OC)c(OC)c(OC)c2)cn1,5.7
2,COc1cc(/C=C\c2ccc(C)c(N)c2)cc(OC)c1OC,5.4
3,COc1cc(/C=C\c2ccccc2)cc(OC)c1OC,4.44
4,COc1ccc(/C=C(/C#N)c2cc(OC)c(OC)c(OC)c2)cc1,5.22
5,COc1cc(/C=C\c2ccc(C)cc2)cc(OC)c1OC,5.7
6,COc1ccc(NCc2cc(OC)c(OC)c(OC)c2)cc1O.Cl,5.05
7,COc1ccc(/C=C(/C#N)c2cc(OC)c(OC)c(OC)c2)cc1O,5.3
8,COc1ccc(Oc2cc(OC)c(OC)c(OC)c2)cc1O,4.79
9,COc1cccc(/C=C\c2cc(OC)c(OC)c(OC)c2)c1,5.06
10,COc1ccc(OCc2cc(OC)c(OC)c(OC)c2)cc1O,4.65
11,COc1ccc(/C=C\c2cc(OC)c(OC)c(OC)c2)nc1,5.52
12,COc1ccc(/C=C(/C=O)c2cc(OC)c(OC)c(OC)c2)cc1,5.4
13,COc1cc(/C=C\c2ccc(OC(C)=O)cc2)cc(OC)c1OC,4.54
14,COc1cc(/C=C\c2ccc(Br)cc2)cc(OC)c1OC,5.51
15,COc1cc(/C=C\c2ccc(Cl)c(N)c2)cc(OC)c1OC,5.52
16,COc1ncc(/C=C\c2cc(OC)c(OC)c(OC)c2)cn1,5.52
17,COc1ccc(/C=C(/C#N)c2cc(OC)c(OC)c(OC)c2)cc1N,5
18,COc1ccc(CCCCc2cc(OC)c(OC)c(OC)c2)cc1O,4.26
19,COc1ccc(\C=C/C=C/C=C/c2cc(OC)c(OC)c(OC)c2)cc1O,5
20,COc1ccc(/C(C#N)=C\c2cc(OC)c(OC)c(OC)c2)cc1N,5.3
21,COc1cc(/C=C\c2cccc(SC)c2)cc(OC)c1OC,5.21
22,COc1ccc(CCc2cc(OC)c(OC)c(OC)c2)cc1O,5.48

# More lines, now with the values ahead:
row,pIC50,SMILES
1,5.46,COc1ccc(COc2cc(OC)c(OC)c(OC)c2)cc1O
2,4.64,COc1ccc(NCc2cc(OC)c(OC)c(OC)c2)cc1
3,5.05,COc1cnc(/C=C\c2cc(OC)c(OC)c(OC)c2)cn1
4,5.92,COc1cc(/C=C\c2ccc(C)c(N=[N+]=[N-])c2)cc(OC)c1OC
5,5.22,CCCOc1ccc(/C=C\c2cc(OC)c(OC)c(OC)c2)cc1
6,5.46,COc1cc(CNc2ccc(C)c(O)c2)cc(OC)c1OC.Cl
7,5.11,COc1ccc(Cc2cc(OC)c(OC)c(OC)c2)cc1O
8,5.47,COc1cc(/C=C\c2ccc(N(C)C)cc2)cc(OC)c1OC
9,5.7,COc1cc(/C=C\c2ccn(C)c(=O)c2)cc(OC)c1OC
10,4,COc1cc2ccc3cc(O)c(C)cc3c2c(OC)c1OC
11,4.66,COc1ccc(C(O)C(O)c2cc(OC)c(OC)c(OC)c2)cc1O (centres undefined)
12,5.52,COc1ccc(/C=C(/C(N)=O)c2cc(OC)c(OC)c(OC)c2)cc1N
